Experimental data: US20250084078A1, “FUSED RING-SUBSTITUTED SIX-MEMBERED HETEROCYCLIC COMPOUND, AND PREPARATION METHOD THEREFOR AND USE THEREOF” (GENFLEFT THERAPEUTICS (SHANGHAI) INC., priority 2022, published 2025)

Experiments:
[1] = molecular target: T1, HPK1 (Homo sapiens, UniProt Q92918); test: HPK1 kinase activity assay (ADP-Glo); conditions: HPK1 Kinase activity IC50, ADP-Glo; 1 nM HPK1, 10 μM ATP, 0.1 μg/μL MBP
T1 sequence (Q92918 1-346): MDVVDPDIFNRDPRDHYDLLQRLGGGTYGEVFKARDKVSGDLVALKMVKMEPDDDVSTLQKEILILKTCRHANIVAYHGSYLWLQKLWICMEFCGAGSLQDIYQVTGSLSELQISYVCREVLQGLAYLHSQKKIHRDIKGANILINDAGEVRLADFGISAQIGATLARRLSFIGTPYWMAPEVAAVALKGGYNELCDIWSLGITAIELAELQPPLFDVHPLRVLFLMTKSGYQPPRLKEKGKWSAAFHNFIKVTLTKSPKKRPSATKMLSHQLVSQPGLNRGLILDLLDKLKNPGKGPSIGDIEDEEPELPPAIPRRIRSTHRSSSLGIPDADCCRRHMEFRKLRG
Experimental: Preparation of buffer: Ix reaction buffer (40 mM Tris-HCl, 20 mM MgCl2, 0.01% Brij35, 50 μM DTT, 0.1 mg/ml BSA) was prepared using sterile water, which was prepared and used on the day of the experiment.
(§1) Preparation of 1000× drug stock plate: a 1000× compound stock plate was prepared. […] The compound stock plate was sealed with a sealing film and stored in a −20° C. refrigerator for later use.
Compound preparation and dosing: the 1000× drug stock plate was taken and melted at room temperature in the dark. Then 5× drug intermediate plate was prepared using reaction buffer and mixed well. 2 μL was transferred from the 5× drug intermediate plate into a 384-well plate, and negative control well and positive control well (in which 2 μL reaction buffer containing 0.5% DMSO was added) were set. Each point was repeated twice.
Preparation and incubation of reaction mixture: HPK1 protein was diluted to a 2.5× working solution with reaction buffer. 4 μL 2.5×HPK1 protein was added to each well containing test compound and positive control well, and 4 μL of reaction buffer without HPK1 protein was added to the negative control well. The obtained mixture was centrifuged at 1000 rpm for 1 min and then incubated in a 20° C. incubator for 15 min. A 2.5× mixed working solution of MBP protein and ATP was prepared with reaction buffer at concentrations of 0.5 μg/μL and 50 μM, respectively. 4 μL of the mixed working solution of MBP and ATP was added to each well, centrifuged at 1000 rpm for 1 min, and then incubated in a 20° C. incubator for 90 min.
ADP-Glo detection and reading plate: 10 μl ADP-Glo was added to each well of the test plate. The resulting mixture was centrifuged at 1000 rpm for 1 min and incubated in a 20° C. incubator for 60 min. Then 10 μL of the final incubation solution was transferred from the test plate to a new 384-well plate. 10 μL of kinase detection reagent was added to each well, centrifuged at 400 g for 1 min, and incubated in a 20° C. incubator for 60 min Chemiluminescent signals were read by a microplate reader.

[2] = molecular target: HPK1 (Homo sapiens, UniProt Q92918); test: SLP76 phosphorylation assay (intracellular HPK1 inhibitory activity, p-SLP76 S376 ELISA in Jurkat cells); conditions: p-SLP76 IC50, Jurkat, Clone E6-1 cells; 1 h compound pre-incubation; anti-CD3 beads stimulation 20 min; Phospho-SLP-76 (Ser376) ELISA
Target sequence in this assay (Q92918 whole entry): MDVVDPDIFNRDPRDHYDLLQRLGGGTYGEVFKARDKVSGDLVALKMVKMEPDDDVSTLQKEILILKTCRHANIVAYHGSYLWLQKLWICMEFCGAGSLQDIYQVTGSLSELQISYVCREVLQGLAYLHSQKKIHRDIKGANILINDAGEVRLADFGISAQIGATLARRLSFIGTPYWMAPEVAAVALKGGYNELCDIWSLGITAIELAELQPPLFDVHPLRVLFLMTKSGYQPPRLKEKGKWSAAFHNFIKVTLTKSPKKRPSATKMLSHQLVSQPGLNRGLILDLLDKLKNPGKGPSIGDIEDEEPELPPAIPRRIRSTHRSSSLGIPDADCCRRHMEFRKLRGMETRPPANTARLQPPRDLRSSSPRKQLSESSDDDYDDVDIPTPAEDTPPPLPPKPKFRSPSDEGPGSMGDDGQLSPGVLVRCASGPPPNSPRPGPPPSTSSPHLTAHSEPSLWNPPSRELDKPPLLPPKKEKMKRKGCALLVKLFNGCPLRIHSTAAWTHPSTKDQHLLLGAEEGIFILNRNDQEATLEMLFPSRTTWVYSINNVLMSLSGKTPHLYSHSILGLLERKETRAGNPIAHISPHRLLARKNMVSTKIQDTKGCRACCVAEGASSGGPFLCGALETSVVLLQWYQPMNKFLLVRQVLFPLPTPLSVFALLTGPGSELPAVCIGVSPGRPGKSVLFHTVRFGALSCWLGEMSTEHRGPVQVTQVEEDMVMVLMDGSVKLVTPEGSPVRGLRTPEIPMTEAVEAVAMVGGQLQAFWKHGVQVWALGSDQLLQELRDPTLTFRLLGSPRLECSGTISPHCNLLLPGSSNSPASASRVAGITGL
Experimental: SLP76 Phosphorylation Assay
Intracellular HPK1 inhibitory activity was tested by the detection of SLP76 phosphorylation at S376.
as §1
Preparation of Beads wash buffer: 0.1 mL FBS and 0.4 mL 0.5 M EDTA (with a final concentration of 2 mM) were added to 100 mL PBS and stored in a 4° C. refrigerator for later use.
100× Protease Inhibitor Cocktail in 1/20 total volume was added and stored on wet ice for later use. The buffer was ready to use.
Cell inoculation and dosing: the 1000× drug stock plate was taken and melted at room temperature in the dark. […] Jurkat cells in the logarithmic growth phase were selected and collected. […] The cells were inoculated into a 96-well plate (the volume was 90 μL per well), and a blank control well (without cells inoculation, and in which 110 μL of medium was added) was set. 10 μL of a drug-containing culture medium (10×) was transferred from the 10× drug intermediate plate into the 96-well cell plate (with a final concentration of 0.1% DMSO), and set a DMSO control group (in which 0.1% DMSO was added to the treated cells), a stimulated control group (in which 10 μL of culture medium was added to treat cells) and an unstimulated group (in which 10 μL of culture medium was added to treat cells). The wells were duplicated, gently patted, mixed, and then placed into a 5% CO2 incubator at 37° C. for 1 h.
Anti-CD3 beads stimulation: Dynabeads anti-human CD3 was taken, shaken, and mixed for 60 s. The required volume of beads was pipetted, and an equal volume or at least 1 mL of washing solution was added to wash once. Fresh complete medium was then added to resuspend and adjust the density of the beads to 4×10^7/mL, and the beads were placed on ice for later use. At the end of drug pre-incubation, the cell culture plate was taken out. 10 μL Dynabeads anti-human CD3 was added to each well to treat the cells, and 10 μL the culture medium was added to the unstimulated group. The cell culture plate was shaken to mix well at 2500 rpm for 10 s, and then placed into a 5% CO2 incubator at 37° C. and continued to culture for 20 min.
Detection of p-SLP76 protein level: PathScan Phospho-SLP-76 (Ser376) Sandwich ELISA Kit was applied to detect p-SLP76 protein level. At the end of the Anti-CD3 beads stimulation, the cell culture plate was removed from the incubator. […] After lysis, the cell culture plate was centrifuged at 4° C., 400×g for 5 min. 25 μL of sample and 75 μL of sample diluent were added to each well, and the plate was placed in a 5% CO2 incubator at 37° C. for 2 h. The subsequent detection steps were carried out following the kit instructions, and the absorbance (OD value) of each well was read at 450 nm by a microplate reader.

Row | IC50 [1] [nM] | IC50 [2] [nM] | Structure (SMILES)
1 | 0.08 | 103 | Cc1c[nH]c2ncc(-c3cc4c(c([C@@H]5COCCN5)c3)CN(C(=O)N3C[C@@H](C)O[C@H](C)C3)CC4)nc12 [Compound Z600]
2 | 0.21 | 67.4 | Cc1c[nH]c2ncc(-c3cc4c(c([C@@H]5COCCN5)c3)CN(C(=O)N3CC[C@H](F)C3)CC4)nc12 [Compound Z603, ((S)-3-fluoropyrrolidin-1-yl)(6-(7-methyl-5H-pyrrolo[2,3-b]pyrazin-2-yl)-8-((R)-morpholin-3-yl)-3,4-dihydroisoquinolin-2(1H)-yl)methanone]
3 | 0.36 | 108 | O=C(N1CCc2cc(-c3cnc4[nH]cc(Cl)c4c3)cc([C@@H]3COCCN3)c2C1)N1CC[C@H](F)C1 [Compound Z604, (6-(3-chloro-1H-pyrrolo[2,3-b]pyridin-5-yl)-8-((R)-morpholin-3-yl)-3,4-dihydroisoquinolin-2(1H)-yl)((S)-3-fluoropyrrolidin-1-yl)methanone]
4 | 0.25 | 62.9 | O=C(N1CCc2cc(-c3cnc4[nH]cc(C(F)(F)F)c4n3)cc([C@@H]3COCCN3)c2C1)N1CC2CCC(C1)O2 [Compound Z606, (8-oxa-3-azabicyclo[3.2.1]octan-3-yl)(8-((R)-morpholin-3-yl)6-(7-(trifluoromethyl)-5H-pyrrolo[2,3-b]pyrazin-2-yl)-3,4-dihydroisoquinolin-2(1H)-yl)methanone]
5 | 0.27 | 76.1 | Cc1c[nH]c2ncc(-c3cc4c(c([C@@H]5COCCN5)c3)CN(C(=O)N3C[C@H]5C[C@@H]3CO5)CC4)nc12 [Compound Z607, ((1R,4R)-2-oxa-5-azabicyclo[2.2.1]heptan-5-yl)(6-(7-methyl-5H-pyrrolo[2,3-b]pyrazin-2-yl)-8-((R)-morpholin-3-yl)-3,4-dihydroisoquinolin-2(1H)-yl)methanone]
6 | 0.27 | 67.1 | O=C(N1CCc2cc(-c3cnc4[nH]cc(Cl)c4c3)cc([C@@H]3COCCN3)c2C1)N1C[C@H]2C[C@@H]1CO2 [Compound Z608, ((1R,4R)-2-oxa-5-azabicyclo[2.2.1]heptan-5-yl)(6-(3-chloro-1H-pyrrolo[2,3-b]pyridin-5-yl)-8-((R)-morpholin-3-yl)-3,4-dihydroisoquinolin-2(1H)-yl)methanone]
7 | 0.37 | 98.9 | O=C(N1CCc2cc(-c3cnc4[nH]cc(C(F)(F)F)c4c3)cc([C@@H]3COCCN3)c2C1)N1C2CCC1COC2 [Compound Z611]
8 | 0.76 | 207 | Cc1c[nH]c2ncc(-c3cc4c(c([C@@H]5COCCN5)c3)CN(C(=O)C3(C)CCOCC3)CC4)cc12 [Compound Z615, (R)-(6-(3-methyl-1H-pyrrolo[2,3-b]pyridin-5-yl)-8-(morpholin-3-yl)-3,4-dihydroisoquinolin-2(1H)-yl)(4-methyltetrahydro-2H-pyran-4-yl)methanone]
9 | 0.36 | 86.2 | CC1(C)CC(O)CN1C(=O)N1CCc2cc(-c3cnc4[nH]cc(Cl)c4c3)cc([C@@H]3COCCN3)c2C1 (stereo partly drawn) [Compound Z617, (6-(3-chloro-1H-pyrrolo[2,3-b]pyridin-5-yl)-8-((R)-morpholin-3-yl)-3,4-dihydroisoquinolin-2(1H)-yl)(4-hydroxy-2,2-dimethylpyrrolidin-1-yl)methanone]
10 | 0.36 | 76 | Cc1c[nH]c2ncc(-c3cc4c(c([C@@H]5COCCN5)c3)CN(C(=O)N3CCC(F)(F)CC3)CC4)nc12 [Compound Z624, (R)-(4,4-difluoropiperidin-1-yl)(6-(7-methyl-5H-pyrrolo[2,3-b]pyrazin-2-yl)-8-(morpholin-3-yl)-3,4-dihydroisoquinolin-2(1H)-yl)methanone]
